Reference: EP0423240B1, “MODULATION OF VIRUS-HOST CELL INTERACTIONS USING CYCLIC OLIGOSACCHARIDES” (THE TRUSTEES OF THE UNIVERSITY OF PENNSYLVANIA, priority 1988, dated 1990)

How the values were obtained:
HTLV III WMJ = assay: Fusion inhibition (syncytia) assay, Sup-T1 cells with WMJ infected H9 cells; format: cell-based, HIV-1; design: key to Degree of Syncytia Formation: 4=Full; 0=None; S=Small; M=Medium; L=Large; settings: for Degree of Syncytia Formation: degree and size of syncytia
Method: The fusion inhibition (syncytia) assay was performed according to published procedures (Dalgleish et al., Nature 312:763, (1984) and Sodroski et al., Nature 322: 470, (1986)). Sup-T1 cells are favored target cells for their rapid degree of cell fusion when co-cultured with HIV-1 producing cell lines. Cell culture is performed according to the method of Dalgleish et al. (Nature 312:763, (1984)). Sup-T1 cells are plated in 96 well plates (10⁵ cells/well in RPMI 1640 + 10% FCS) and incubated with or without dilutions of beta-cyclodextrin tetradecasulfate (β-CD-TDS or β-CD-14S) at 37°C. HTLV-III B (HIV-1) or WMJ infected H9 cells are then added 5x10⁴/well and the number of multinucleated giant cells per 16 X field counted with a Zeiss inverted field phase contrast microscope after 18 hours. Syncytia are easily identified and inhibition of syncytia by different dilutions of β-CD-TDS can be compared with to β-CD-TDS free preparations. It will be apparent to those skilled in the art, that the formation of syncytia between cells susceptible of infection by HIV-1 and cells expressing HIV-1 envelope glycoproteins represents the same molecular phenomena involved in infection by HIV-1, but is far less hazardous and may be employed to study the mechanisms of infection and the effects of modulating factors on HIB-1 intracellular infection mechanisms, without fear of exposure to the virus itself.
For screening of different dilutions, 10-fold dilutions of a 150 micromolar solution of β-CD-TDS were prepared and directly added to syncytia assays as described above.
(§1) For the assay of HIV-1 fusion, Supt T1 cells were used as target cells. They fuse rapidly when cocultured with HIV-1 (H9/IIIb) producing cell lines. For the assay of HIV-2 mediated cell fusion, H9 cells were used as target cells. They fuse rapidly when cocultured with HIV-2 (CEMROD-2) producing cell lines. HIV infected cells were plated in 96 well plates (10⁴ cells/well in RPMI 1640 + 10% FCS) and incubated with or without dilution of compounds for 30 minutes at 37°C. Target cells are then added 5 x 10⁵/well and the number of syncytia are qualitatively determined after the incubation periods described in the text.
In a series of preliminary experiments, a syncytia assay induced by HIV-1 fusion of Sup-T1 cells was performed as described in Section 6.1.1, supra.

HIV-1 [1] = assay: HIV-1 induced syncytia assay, IIIb infected H9 cells cocultured with Supt-1 target cells; format: cell-based; design: key to number of syncytia formed: 4 being multiple syncytia widely distributed; 0 indicating no syncytia observed; s=small; m=medium; L=large syncytia; settings: for number of syncytia formed: HIV-1, number and size of syncytia
Method: as §1
In a series of additional experiments, analysis of HIV-1 induced syncytia was performed by coculturing H9 cells infected with the IIIb isolate with uninfected Supt-1 (a human CD4+ T cell line) cells as targets. […]

HIV-2 = HIV-2 induced syncytia assay, ROD-2 infected cells cocultured with H9 target cells; format: cell-based; design: key to number of syncytia formed: 4 being multiple syncytia widely distributed; 0 indicating no syncytia observed; s=small; m=medium; L=large syncytia; settings: for number of syncytia formed: HIV-2, number and size of syncytia
Method: as §1, with “text. […]” for “text.”

[2] = tested on: HTLV-IIIb cell free virus; assay: Reverse transcriptase assay of HIV infectivity, cell free virus on target cells, 10 day incubation; format: cell-based, HIV-1
Method: Figure 2 illustrates the effects of cyclodextrin and cyclodextrin derivatives on HIV infectivity as determined by reverse transcriptase activity. Samples assayed are (A) untreated control cells, (B) β-cyclodextrin unsubstituted ring, (C) partially sulfated β-cyclodextrin ring, (D) propylated β-cyclodextrin ring, (E) sulfated β-cyclodextrin ring, and (F) methylated β-cyclodextrin ring. Numbers indicate 1/2 dilutions of test compounds with 1 = 2.5 mM concentration of compound.
Virus infected cells were pelleted by centrifugation and 50 µl of culture suprenatant was collected from each well for assay. Culture supernatant (25 µl) was plated in 96 well round bottomed plates and 50 µl of transcriptase cocktail was added to each well. Cocktail is 50 mM Tris-HC1, pH 8.0, 20 mM DTT, 0.6 mM MnC1₂, 60 mM NaC1, 0.05% NP-40, 5 µg/ml dt (oligodeoxythymidilic acid), 10 µg/ml poly A (polyriboadenylic acid), 10 µM dTTP, 1 Ci/mm ³²P dTTP. Plates were then incubated for 60 minutes at 37°C. After incubation samples were spotted onto Whatman DEAE-81 paper, washed and analyzed by counting or direct autoradiography.
The ability of cyclodextrins to inhibit HIV infection was assessed in vitro utilizing reverse transcriptase assays as described Section 6.1.2, supra. HTLV-IIIb cell free virus stocks were inoculated onto target cells in the presence or absence of the synthetic compounds.

HIV-1 [3] = assay: Structural studies: electron microscopy of virus particle production by infected cells; format: cell-based
Method: Virus infected cells were washed and resuspended in fresh media in the presence or absence of test compounds. After a 48 hour culture period the cultures were pelleted and fixed in 1% glutaraldehyde, 0.1 M Cacodylate-HC1, pH 7.3 followed by OsO₄, and embedded in spur resin for examination of these sections by electron microscopy.
To further address this point, we analyzed virus particle production in the presence of specifically substituted cyclodextrins by electron microscopic examination. Virus infected cells were washed and resuspended in fresh media in the presence or absence of test compounds. After a 48 hour culture period, the cultures were pelleted and fixed in 1% glutaraldehyde, 0.1 M Cacodylate-HC1, pH 7.3 followed by OsO₄ and embedded in spur resin for examination of thin sections.

Substance: beta-cyclodextrin tetradecasulfate [Beta-CD-14S]
- Degree of Syncytia Formation (HTLV III WMJ; 0.15 micromolar β-CD-TDS): 4 L
- inhibition of syncytia formation (HTLV III WMJ; 0.15 micromolar, text summary of Table 1 (both strains)): no inhibition of syncytia formation was observed
- Degree of Syncytia Formation (HTLV III WMJ; 1.50 micromolar β-CD-TDS): 3 M
- Degree of Syncytia Formation (HTLV III WMJ; 15.0 micromolar β-CD-TDS): 1S
- Degree of Syncytia Formation (HTLV III WMJ; 150 micromolar β-CD-TDS): 0
- Degree of Syncytia Formation (HTLV III WMJ; 1500 micromolar β-CD-TDS): 0
- inhibition of syncytia (HTLV III WMJ; between 1.5 micromolar and 1500 micromolar, text summary of Table 1 (both strains)): inhibition of syncytia was observed
- number of syncytia formed (HIV-1 [1]; 1.3 mM): 0
- number of syncytia formed (HIV-1 [1]; 2.5 mM): 0
- number of syncytia formed (HIV-1 [1]; .01 mM): 4 L
- number of syncytia formed (HIV-1 [1]; .02 mM): 4 L
- number of syncytia formed (HIV-1 [1]; .04 mM): 3 L
- number of syncytia formed (HIV-1 [1]; .08 mM): 2m
- number of syncytia formed (HIV-1 [1]; .16 mM): 1 s
- number of syncytia formed (HIV-1 [1]; .32 mM): 0
- number of syncytia formed (HIV-1 [1]; .63 mM): 0
- inhibiting syncytia formation of HIV-1 (HIV-1 [1]; result in words): extremely high antisyncytia activity
- number of syncytia formed (HIV-2; 1.3 mM): 0
- number of syncytia formed (HIV-2; 2.5 mM): 0
- number of syncytia formed (HIV-2; .01 mM): 4 L
- number of syncytia formed (HIV-2; .02 mM): 4 L
- number of syncytia formed (HIV-2; .04 mM): 4 L
- number of syncytia formed (HIV-2; .08 mM): 3 L
- number of syncytia formed (HIV-2; .16 mM): 2m
- number of syncytia formed (HIV-2; .32 mM): 1 s
- number of syncytia formed (HIV-2; .63 mM): 0
- inhibition of syncytia formation mediated by ROD-2 (HIV-2; result in words): inhibited syncytia formation
- inhibition of viral infectivity (reverse transcriptase activity) ([2]; 1/2 dilutions from 2.5 mM, result in words): extremely effective
- concentrations at which some reverse transcriptase activity was apparent ([2]; dilution 4): ≤ 320 µM
- concentrations at which reverse transcriptase activity was dramatically inhibited ([2]; dilution 6): ≥ 80 µM
- morphology of viral particles produced (HIV-1 [3]; 300 µM, 48 hour culture): typical of the lentivirus family
- morphology of the viral particles produced (HIV-1 [3]; infected H9 cells, 1 mM): mature morphology
